Source: patent US20080274892A1, “Novel Haloalkylsulfonanilide Derivative, Herbicide, and Method of Use Thereof” (priority 2005, published 2008)

Tests used:
[1] = test system: transplanted paddy rice plant and Bulrush; assay: Test Example 5: selectivity between transplanted paddy rice plant and weeds; type: in vivo; details: (highest dosage with no phytotoxicity to paddy rice)/(lowest dosage with effective level 4 on Bulrush); rice 3000-100 g/ha, Bulrush 300-10 g/ha; 21 days
Procedure, shortened: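 Scoring ran 21 days after treatment in a hothouse on a 0–4 scale (4 = 90–100%, 3 = 70–89%, 2 = 40–69%, 1 = 1–39%, 0 = none) relative to untreated plants. Post-emergence bulrush received 10, 30, 100 and 300 g/ha active ingredient. Transplanted rice received 100, 300, 1000 and 3000 g/ha to assess crop injury.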

[2] = test system: paddy rice plant (cultivar: Nihonbare); assay: Test Example 3: phytotoxicity test for transplanted paddy rice plant; type: in vivo; details: dosage 1000 g/ha; transplanted rice, treated 5 days after transplantation; 21 days after treatment
Procedure, shortened: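 Clay loam soil was placed in a 75 cm^2 plastic pot and flooded to a water depth of 5 cm. Two Nihonbare paddy rice plants at the two-leaf stage were transplanted 1 cm deep and grown in a hot house. After treatment, pots stayed in the hot house for 21 days, and phytotoxicity was then graded against an untreated control.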

bulrush [3] = assay: Test Example 4: low dosage test for rice paddy weeds; type: in vivo, Scirpus juncoides; details: 300 g/ha as an active ingredient; plants treated at the one leaf stage; 21 days after treatment; vs untreated control
Procedure, shortened: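 Compound applied as a formulation at 300 g/ha to one-leaf bulrush grown in flooded clay loam (5 cm water) in a hot house. After 21 days, growth inhibition versus untreated plants rated on a 0–4 scale, with 4 meaning 90–100%.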

barnyard glass = assay: Test Example 2: herbicidal efficacy on rice paddy weeds post-emergence; type: in vivo, Echinochloa crus-galli; details: dosage 1000 g/ha; post-emergence, one leaf stage; 21 days after treatment
Procedure, shortened: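 Efficacy on paddy weeds was scored on a 0 to 4 growth-inhibition scale: 4 for 90%-100%, 3 for 70%-89%, 2 for 40%-69%, 1 for 1%-39% and 0 for 0%. Barnyard glass was grown in clay loam in 75 cm^2 pots under 5 cm of water in a hot house. It was compared with untreated pots 21 days after treatment.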

false pimpernel [4] = assay: as above; type: in vivo, Lindernia pyxidaria; details: dosage 1000 g/ha; post-emergence, one leaf stage; 21 days after treatment
bulrush [5] = assay: Test Example 1: herbicidal efficacy on rice paddy weeds pre-emergence; type: in vivo, Scirpus juncoides; details: dosage 1000 g/ha, 21 days
false pimpernel [6] = assay: as above; type: in vivo, Lindernia pyxidaria; details: dosage 1000 g/ha, 21 days
bulrush [7] = assay: Test Example 2: herbicidal efficacy on rice paddy weeds post-emergence; type: in vivo, Scirpus juncoides; details: dosage 1000 g/ha; post-emergence, one leaf stage; 21 days after treatment

SMILES	Selective Index [1]	Phytotoxicity to paddy rice [2]	Herbicide effect to Bulrush (bulrush [3])	Burnyard grass post (herbicidal efficacy grade) (barnyard glass)	False pimpernel post (herbicidal efficacy grade) (false pimpernel [4])	Bulrush pre (herbicidal efficacy grade) (bulrush [5])	False pimpernel pre (herbicidal efficacy grade) (false pimpernel [6])	Bulrush post (herbicidal efficacy grade) (bulrush [7])	melting point [°C]
CC1CN(Cc2ccccc2NS(=O)(=O)C(F)(F)F)C(=S)O1 (stereo not drawn) [Compound No. 1-21, 5-methyl-3-[2-(trifluoromethanesulfonylamino)benzyl]-2-oxazolidinethione]	33	0 (0% of herbicidal efficacy or phytotoxicity)	4 (90%-100% of herbicidal efficacy or phytotoxicity)	4 (90%-100% of herbicidal efficacy or phytotoxicity)	3 (70%-89% of herbicidal efficacy or phytotoxicity)	4 (90%-100% of herbicidal efficacy or phytotoxicity)	4 (90%-100% of herbicidal efficacy or phytotoxicity)	4 (90%-100% of herbicidal efficacy or phytotoxicity)	74 to 76
CC(C)COC(=O)N(c1ccccc1CN1C(=O)OCC1(C)C)S(=O)(=O)C(F)(F)F [Compound No. 1-16, 4,4-dimethyl-3-{2-[N-(isobutoxycarbonyl)-N-(trifluoromethanesulfonyl)amino]benzyl}-2-oxazolidinone]	33	0 (0% of herbicidal efficacy or phytotoxicity)	4 (90%-100% of herbicidal efficacy or phytotoxicity)	4 (90%-100% of herbicidal efficacy or phytotoxicity)	4 (90%-100% of herbicidal efficacy or phytotoxicity)	4 (90%-100% of herbicidal efficacy or phytotoxicity)	4 (90%-100% of herbicidal efficacy or phytotoxicity)	4 (90%-100% of herbicidal efficacy or phytotoxicity)	65 to 65.8
